Assay results: patent US8945632B2, “Methods and compositions for inhibiting the nuclear factor κB pathway” (Ben Gurion University of the Negev R&D Authority, priority 2010, dated 2015)

Key:
[1] = tested on: L428 cells; assay: XTT cell survival, NUP combined with chemotherapeutic drugs; type: cell-based, human; details: Bortezomib 0.9 ng/ml, same conditions, data not shown
[2] = tested on: B16 melanoma cells in C57BL/6 mice; assay: Experimental lung metastasis of B16 melanoma cells; type: in vivo; details: NUP 20 mg/kg or cisplatin 4 mg/kg, day 0 to day 14, lungs excised day 18
Protocol: C57BL/6 mice were treated with an intravenous injection of B16 melanoma cells (3*10^5 cells/[…]). […] Control animals received only vehicle. Lungs were excised on day 18. Metastatic nodules are black (FIG. 11).

## CC(C)C[C@H](NC(=O)[C@H](Cc1ccccc1)NC(=O)c1cnccn1)B(O)O [Bortezomib]
[1]
  Combined effect on cell survival with NUP: additive to NUP and not synergistic

## N.N.[Cl][Pt][Cl] [cisplatin]
[2]
  Number of lung metastatic nodules, single agent: reduced the number of lung metastatic nodules
